Like-named read-outs stand apart in the source and are kept apart here. Bounds are passed on as bounds.

The target in one test is T1, c-Abl kinase (Homo sapiens, UniProt P00519).
T1 construct: The His-tagged kinase domain of c-Abl is cloned and expressed in the baculovirus/Sf9 system; His; made in house; host or cells: Sf9 (baculovirus)
T1 sequence (P00519 242-493 limits assumed): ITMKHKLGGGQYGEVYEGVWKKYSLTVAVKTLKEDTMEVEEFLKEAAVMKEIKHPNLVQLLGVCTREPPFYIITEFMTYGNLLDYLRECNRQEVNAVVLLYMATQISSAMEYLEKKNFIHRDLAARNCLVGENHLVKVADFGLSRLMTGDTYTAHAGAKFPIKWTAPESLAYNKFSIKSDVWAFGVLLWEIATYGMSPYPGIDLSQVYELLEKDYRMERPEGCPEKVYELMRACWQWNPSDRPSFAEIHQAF
The test can be described thus: c-Abl protein-tyrosine kinase filter binding assay. It counts as biochemical. Here is the method: The His-tagged kinase domain of c-Abl is cloned and expressed in the baculovirus/Sf9 system as described by Bhat et al. in J. Biol. Chem. 1997; 272:16170-16175. A protein of 37 kD (c-Abl kinase) is purified by a two-step procedure over a Cobalt metal chelate column followed by an anion exchange column with a yield of 1-2 mg/L of Sf9 cells (Bhat et al., reference cited). The purity of the c-Abl kinase is >90% as judged by SDS-PAGE after Coomassie blue staining. The assay contains (total volume of 30 μL): c-Abl kinase (50 ng), 20 mM Tris.HCl, pH 7.5, 10 mM MgCl2, 10 μM Na3VO4, 1 mM DTT and 0.06 μCi/assay [γ^33 P]-ATP (5 μM ATP) using 30 μg/mL poly-Ala,Glu,Lys,Tyr-6:2:5:1 (Poly-AEKY, Sigma P1152) in the presence of 1% DMSO. Reactions are terminated by adding 10 μL of 250 mM EDTA and 30 μL of the reaction mixture is transferred onto Immobilon-PVDF membrane (Millipore, Bedford, Mass., USA) previously soaked for 5 min with methanol, rinsed with water, then soaked for 5 min with 0.5% H3PO4 and mounted on vacuum manifold with disconnected vacuum source. After spotting all samples, vacuum is connected and each well rinsed with 200 μL 0.5% H3PO4. Membranes are removed and washed on a shaker with 0.5% H3PO4 (4 times) and once with ethanol. Membranes are counted after drying at ambient temperature, mounting in Packard TopCount 96-well frame, and addition of 10 μL/well of Microscint™ (Packard).

Test [1] deals with T2, human VEGF-R2 receptor (KDR) (Homo sapiens, UniProt P35968).
T2 construct: expressed in transfected cells; host or cells: CHO cells
T2 sequence (P35968 20-1356): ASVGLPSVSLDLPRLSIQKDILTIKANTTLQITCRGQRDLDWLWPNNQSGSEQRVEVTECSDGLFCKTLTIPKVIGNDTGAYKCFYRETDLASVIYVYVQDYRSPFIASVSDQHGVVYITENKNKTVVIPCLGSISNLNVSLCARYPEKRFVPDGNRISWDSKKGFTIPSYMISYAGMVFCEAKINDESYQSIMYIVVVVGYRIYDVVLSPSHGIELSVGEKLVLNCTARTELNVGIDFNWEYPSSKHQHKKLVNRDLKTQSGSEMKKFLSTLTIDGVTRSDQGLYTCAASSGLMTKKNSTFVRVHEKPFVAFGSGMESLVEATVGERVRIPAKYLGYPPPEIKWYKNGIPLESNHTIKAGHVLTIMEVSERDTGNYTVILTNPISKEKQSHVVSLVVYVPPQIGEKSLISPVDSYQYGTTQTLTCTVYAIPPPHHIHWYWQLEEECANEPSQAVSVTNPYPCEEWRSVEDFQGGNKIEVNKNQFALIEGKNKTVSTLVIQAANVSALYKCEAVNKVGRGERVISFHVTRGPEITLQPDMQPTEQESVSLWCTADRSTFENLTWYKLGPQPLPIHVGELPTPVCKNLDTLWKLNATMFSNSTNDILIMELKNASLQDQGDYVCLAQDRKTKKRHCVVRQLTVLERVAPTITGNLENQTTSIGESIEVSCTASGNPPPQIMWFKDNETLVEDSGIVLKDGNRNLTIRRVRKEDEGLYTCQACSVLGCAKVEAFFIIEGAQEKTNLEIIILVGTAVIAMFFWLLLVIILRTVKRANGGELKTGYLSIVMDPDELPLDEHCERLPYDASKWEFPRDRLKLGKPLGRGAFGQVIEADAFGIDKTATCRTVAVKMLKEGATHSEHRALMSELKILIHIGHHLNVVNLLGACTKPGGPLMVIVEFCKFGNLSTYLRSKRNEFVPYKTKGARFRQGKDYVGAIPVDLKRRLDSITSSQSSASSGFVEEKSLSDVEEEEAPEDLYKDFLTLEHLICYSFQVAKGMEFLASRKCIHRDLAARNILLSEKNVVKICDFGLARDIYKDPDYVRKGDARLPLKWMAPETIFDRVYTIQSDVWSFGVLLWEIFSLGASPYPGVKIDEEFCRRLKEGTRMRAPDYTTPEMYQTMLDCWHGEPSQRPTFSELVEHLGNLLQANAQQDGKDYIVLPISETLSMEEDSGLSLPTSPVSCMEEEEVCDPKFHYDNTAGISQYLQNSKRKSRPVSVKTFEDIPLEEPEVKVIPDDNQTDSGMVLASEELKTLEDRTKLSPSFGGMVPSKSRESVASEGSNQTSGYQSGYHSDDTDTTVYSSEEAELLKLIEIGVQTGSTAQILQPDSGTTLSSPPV
The test can be described thus: VEGF-induced KDR autophosphorylation in transfected CHO cells, sandwich ELISA. It counts as cell-based. To be noted: Table 5; read-out: KDR, IC50 class. Here is the method:
The compounds to be tested are then diluted in culture medium (without FCS, with 0.1% bovine serum albumin) and added to the cells. (Controls comprise medium without test compounds). After two hours' incubation at 37° C., recombinant VEGF is added; the final VEGF concentration is 20 ng/ml). After a further five minutes incubation at 37° C., the cells are washed twice with ice-cold PBS (phosphate-buffered saline) and immediately lysed in 100 μl lysis buffer per well. The lysates are then centrifuged to remove the cell nuclei, and the protein concentrations of the supernatants are determined using a commercial protein assay (BIORAD). The lysates can then either be immediately used or, if necessary, stored at −20° C. A sandwich ELISA is carried out to measure the VEGF-R2 phosphorylation: a monoclonal antibody to VEGF-R2 (for example Mab 1495.12.14; ProQinase, Freiburg, Germany) is immobilized on black ELISA plates (OptiPlate™ HTRF-96 from Packard). The plates are then washed and the remaining free protein-binding sites are saturated with 3% TopBlock® (Juro, Cat. # TB232010) in phosphate buffered saline with Tween 20® (polyoxyethylen(20)-sorbitane monolaurate, ICI/Uniquema) (PBST). The cell lysates (20 μg protein per well) are then incubated in these plates overnight at 4° C. together with an antiphosphotyrosine antibody coupled with alkaline phosphatase (PY20:AP from Zymed). […] The luminescence is measured in a Packard Top Count Microplate Scintillation Counter. The difference between the signal of the positive control (stimulated with VEGF) and that of the negative control (not stimulated with VEGF) corresponds to VEGF-induced VEGF-R2 phosphorylation (=100%). The activity of the tested substances is calculated as percent inhibition of VEGF-induced VEGF-R2 phosphorylation, wherein the concentration of substance that induces half the maximum inhibition is defined as the IC50 (inhibitory dose for 50% inhibition). […] Flt3 kinase inhibition is determined as follows: The baculovirus donor vector pFbacG01 (GIBCO) is used to generate a recombinant baculovirus expressing the amino acid region amino acids 563-993 of the cytoplasmic kinase domain of human Flt-3. The coding sequence for the cytoplasmic domain of Flt-3 is amplified by PCR from human c-DNA libraries (Clontech). The amplified DNA fragments and the pFbacG01 vector are made compatible for ligation by digestion with BamH1 and HindIII. Ligation of these DNA fragments results in the baculovirus donor plasmid Flt-3(1.1). The production of the viruses, the expression of proteins in Sf9 cells and the purification of the GST-fused proteins are performed as follows: Production of virus: Transfer vector (pFbacG01-Flt-3) containing the Flt-3 kinase domain is transfected into the DH10Bac cell line (GIBCO) and the transfected cells are plated on selective agar plates. Colonies without insertion of the fusion sequence into the viral genome (carried by the bacteria) are blue. Single white colonies are picked and viral DNA (bacmid) is isolated from the bacteria by standard plasmid purification procedures. Sf9 or Sf21 cells (American Type Culture Collection) are then transfected in flasks with the viral DNA using Cellfectin reagent. Determination of small scale protein expression in Sf9 cells: Virus containing media is collected from the transfected cell culture and used for infection to increase its titre. Virus containing media obtained after two rounds of infection is used for large-scale protein expression. For large-scale protein expression 100 cm^2 round tissue culture plates are seeded with 5×10^7 cells/plate and infected with 1 mL of virus-containing media (approx. 5 MOIs). After 3 days the cells are scraped off the plate and centrifuged at 500 rpm for 5 min. Cell pellets from 10-20, 100 cm^2 plates, are resuspended in 50 mL of ice-cold lysis buffer (25 mMTris-HCl, pH 7.5, 2 mM EDTA, 1% NP-40, 1 mM DTT, 1 mM PMSF). The cells are stirred on ice for 15 min and then centrifuged at 5000 rpms for 20 min. […]
On the technique in general: ELISA stands for enzyme-linked immunosorbent assay.

[2] abbreviates: Table 4, read-out: c-abl, activity (IC50 for kinase inhibition).
[3] abbreviates: Table 5, read-out: C-abl, IC50 class.

As for `CN1CCN(c2ccc(-c3cnn4c(N)c(-c5cccc(O)c5)cnc34)cc2)CC1` [Example 1, 3-{7-Amino-3-[4-(4-methyl-piperazin-1-yl)-phenyl]-pyrazolo[1,5-a]pyrimidin-6-yl}-phenol], the IC50 (usually the concentration at which inhibition is half-maximal) on c-Abl kinase (setting [2]) is < 10 µM. For the compound `Nc1c(-c2cccc(O)c2)cnc2c(-c3cccnc3)cnn12` [Example 46, 3-[7-Amino-3-pyridin-3-yl-pyrazolo[1,5-a]pyrimidin-6-yl]-phenol], the IC50 at c-Abl kinase (setting [2]) is < 10 µM.

For the compound `COc1ccccc1-c1cnn2c(N)c(-c3cccc(O)c3)cnc12` [Example 48, 3-[7-Amino-3-(2-methoxy-phenyl)-pyrazolo[1,5-a]pyrimidin-6-yl]-phenol], the IC50 on c-Abl kinase (setting [2]) was < 10 µM.

For `COc1cccc(-c2cnn3c(N)c(-c4cccc(O)c4)cnc23)c1` [Example 60, 3-[7-Amino-3-(3-methoxy-phenyl)-pyrazolo[1,5-a]pyrimidin-6-yl]-phenol], the IC50 at c-Abl kinase (setting [2]) is < 10 µM. Consider `Cc1nc2c(-c3cccc(N4CCN(C)CC4)c3)cnn2c(N)c1-c1cccc(Cl)c1` [Example 72, 6-(3-Chloro-phenyl)-5-methyl-3-[3-(4-methyl-piperazin-1-yl)-phenyl]-pyrazolo[1,5-a]pyrimidin-7-ylamine], for which the IC50 (at c-Abl kinase (setting [3]); in test [1]) was < 1 µM throughout. As for `Cc1nc2c(-c3ccc(N4CCN(C)CC4)cc3)cnn2c(N)c1-c1cccc(Cl)c1` [Example 73, 6-(3-Chloro-phenyl)-5-methyl-3-[4-(4-methyl-piperazin-1-yl)-phenyl]-pyrazolo[1,5-a]pyrimidin-7-ylamine], the 50% inhibitory concentration (IC50) (at c-Abl kinase (setting [3]); in test [1]) was < 1 µM throughout. For the compound `COc1cc(N2CCN(C)CC2)ccc1-c1cnn2c(N)c(-c3cccc(Cl)c3)c(C)nc12` [Example 75, 6-(3-Chloro-phenyl)-3-[2-methoxy-4-(4-methyl-piperazin-1-yl)-phenyl]-5-methyl-pyrazolo[1,5-a]pyrimidin-7-ylamine], the IC50 on c-Abl kinase (setting [3]) is < 1 µM; in test [1] it was 1 to 10 µM. Take `COc1cc(N2CCN(C)CC2)ccc1-c1cnn2c(N)c(-c3cccc(O)c3)cnc12` [Example 76, 3-{7-Amino-3-[2-methoxy-4-(4-methyl-piperazin-1-yl)-phenyl]-pyrazolo[1,5-a]pyrimidin-6-yl}-phenol]: the half-inhibitory concentration (IC50) in test [1] is < 1 µM. In the case of `CN1CCN(c2ccc(-c3cnn4c(N)c(-c5ccccc5Cl)cnc34)cc2)CC1` [Example 77, 6-(2-Chloro-phenyl)-3-[4-(4-methyl-piperazin-1-yl)-phenyl]-pyrazolo[1,5-a]pyrimidin-7-ylamine], the half-inhibitory concentration (IC50) in test [1] is < 1 µM.

`CN1CCN(c2cccc(-c3cnn4c(N)c(-c5ccccc5Cl)cnc34)c2)CC1` [Example 78, 6-(2-Chloro-phenyl)-3-[3-(4-methyl-piperazin-1-yl)-phenyl]-pyrazolo[1,5-a]pyrimidin-7-ylamine]: the IC50 in test [1] is < 1 µM. With `Cc1nc2c(-c3ccc(N4CCN(C)CC4)cc3)cnn2c(N)c1-c1ccc(F)cc1` [Example 79, 6-(4-Fluoro-phenyl)-5-methyl-3-[4-(4-methyl-piperazin-1-yl)-phenyl]-pyrazolo[1,5-a]pyrimidin-7-ylamine], the concentration for half-maximal inhibition (IC50) is < 1 µM at c-Abl kinase (setting [3]) and 1 to 10 µM in test [1]. For `Cc1nc2c(-c3cccc(N4CCN(C)CC4)c3)cnn2c(N)c1-c1ccc(F)cc1` [Example 80, 6-(4-Fluoro-phenyl)-5-methyl-3-[3-(4-methyl-piperazin-1-yl)-phenyl]-pyrazolo[1,5-a]pyrimidin-7-ylamine], in that order: < 1 µM and 1 to 10 µM. For `Cc1nc2c(-c3cccc(N4CCN(C5CCN(C)CC5)CC4)c3)cnn2c(N)c1-c1cccc(Cl)c1` [Example 81, 6-(3-Chloro-phenyl)-5-methyl-3-{3-[4-(1-methyl-piperidin-4-yl)-piperazin-1-yl]-phenyl}-pyrazolo[1,5-a]pyrimidin-7-ylamine], in that order: < 1 µM and < 1 µM.

Turning to `Cc1nc2c(-c3cccc(N4CCN(C)CC4)c3)cnn2c(N)c1-c1ccc(F)c(Cl)c1` [Example 82, 6-(3-Chloro-4-fluoro-phenyl)-5-methyl-3-[3-(4-methyl-piperazin-1-yl)-phenyl]pyrazolo[1,5-a]pyrimidin-7-ylamine], the values for the IC50 (at c-Abl kinase (setting [3]); in test [1]) were < 1 µM and > 10 µM, respectively.

`Cc1nc2c(-c3ccc(N4CCN(C)CC4)cc3)cnn2c(N)c1-c1ccc(F)c(Cl)c1` [Example 83, 6-(3-Chloro-4-fluoro-phenyl)-5-methyl-3-[4-(4-methyl-piperazin-1-yl)-phenyl]-pyrazolo[1,5-a]pyrimidin-7-ylamine]: the IC50 on c-Abl kinase (setting [3]) was < 1 µM; in test [1], > 10 µM. In the case of `Cc1nc2c(-c3cccc(N4CCN(C)CC4)c3)cnn2c(N)c1-c1cccc(Br)c1` [Example 84, 6-(3-Bromo-phenyl)-5-methyl-3-[3-(4-methyl-piperazin-1-yl)-phenyl]-pyrazolo[1,5-a]pyrimidin-7-ylamine], the IC50 was < 1 µM on c-Abl kinase (setting [3]) and 1 to 10 µM in test [1]. Turning to `CN1CCN(c2cccc(-c3cnn4c(N)c(Cc5cccc(Br)c5)cnc34)c2)CC1` [Example 85, 6-(3-Bromo-benzyl)-3-[3-(4-methyl-piperazin-1-yl)-phenyl]pyrazolo[1,5-a]pyrimidin-7-ylamine], the 50% inhibitory concentration (IC50) is < 1 µM on c-Abl kinase (setting [3]) and > 10 µM in test [1]. The corresponding values for `CN1CCN(c2cccc(-c3cnn4c(N)c(-c5cccc(Br)c5)cnc34)c2)CC1` [Example 86, 6-(3-Bromo-phenyl)-3-[3-(4-methyl-piperazin-1-yl)-phenyl]-pyrazolo[1,5-a]pyrimidin-7-ylamine] are < 1 µM and < 1 µM. Consider `COc1ccc(-c2cnn3c(N)c(-c4cccc(Cl)c4)c(CF)nc23)cc1OC` [Example 92, 6-(3-Chloro-phenyl)-3-(3,4-dimethoxy-phenyl)-5-fluoromethyl-pyrazolo[1,5-a]pyrimidin-7-ylamine], for which the IC50 in test [1] is 1 to 10 µM.
